Reference: patent publication US20230102924A1, “Methods of Treating Cancer Using Checkpoint Inhibitors in Combination with Purine Cleaving Enzymes” (priority 2020, published 2023)
“Also recorded” adds a separate entry of the source.

B1: E. coli PNP: E. coli purine nucleoside phosphorylase expressed in the EMT-6-PNP-EMU transduced tumor cell line (protein, UniProt P0ABP8 2-239, looked up)
Purine nucleoside …: ATPHINAEMGDFADVVLMPGDPLRAKYIAETFLEDAREVNNVRGMLGFTGTYKGRKISVMGHGMGIPSCSIYTKELITDFGVKKIIRVGSCGAVLPHVKLRDVVIGMGACTDSKVNRIRFKDHDFAAIADFDMVRNAVDAAKALGIDARVGNLFSADLFYSPDGEMFDVMEKYGILGVEMEAAGIYGVAAEFGAKALTICTVSDHIRTHEQTTAAERQTTFNDMIKIALESVLLGDKE

Tests used:
[1] = tested on: EMT-6 tumors that express E. coli PNP; assay: EMT-6 murine breast tumors expressing E. coli PNP (left flank) in mice, fludarabine phosphate plus or minus anti-CTLA4-9H10; assay type: in vivo, female BALB/c mice
Method: (§1) In order to evaluate efficacy, the parental EMT-6-EMU cell line and the EMT-6-PNP-EMU transduced cell line were evaluated. The EMT-6-PNP-EMU transduced cell line and the parental EMT-6-EMU cell line were implanted as shown below in each flank with or without dosing with fludarabine phosphate and/or anti-CTLA-4 antibody using female BALB/c mice.
(§2) Mice were implanted with EMT-6 murine tumors on both the right and left flanks. In groups 1 through 6 the right flanks were implanted with parental (non-PNP) tumors and the left flanks were implanted with tumors expressing E. coli PNP. In groups 7 through 10, both the right and left flanks were injected with parental tumors.

[2] = tested on: EMT-6 tumors that do not express E. coli PNP; assay: Parental EMT-6 murine breast tumors (non-PNP) in mice, fludarabine phosphate plus or minus anti-CTLA4-9H10; assay type: in vivo, female BALB/c mice; conditions: for abscopal effect on a non-PNP tumor of a contralateral PNP tumor regressing due to F-araAMP: F-araAMP 90 mg/kg with anti-CTLA4-9H10
Method: as §1, §2

[3] = FIG. 3 and 5, day 15, right flank non-PNP tumors, PNP tumor contralaterally

Molecule	effect on EMT-6 breast tumors that express E. coli PNP ([1]; FIG. 1, groups 1, 2, 4, 5, F-araAMP 75 mg/kg plus or minus anti-CTLA4-9H10, left flank tumors)	effect on EMT-6 tumors that express E. coli PNP ([1]; FIG. 2, groups 1, 3, 4, 6, F-araAMP 90 mg/kg plus or minus anti-CTLA4-9H10, left flank tumors)	PNP/fludarabine phosphate treatment in combination with an anti-CTLA4 antibody ([1]; summary of FIG. 1, 2, 3)	tumor growth, group 4 (anti-CTLA4 alone) versus group 6 (fludarabine 90 mg/kg + anti-CTLA4), all tumors included in the analysis [2, 3]	tumor growth, group 4 (anti-CTLA4 alone) versus group 6 (fludarabine 90 mg/kg + anti-CTLA4), regressed tumors removed from the analysis [2, 3]	augmentation of anti-CTLA4 antibody antitumor activity in non-PNP tumors ([2]; FIG. 3 and 5, groups 1, 3, 4, 6, F-araAMP 90 mg/kg, PNP tumor regressing contralaterally)	augmentation of anti-CTLA4 antibody activity in parental (non-PNP) tumors ([2]; FIG. 4 and 6, groups 7-10, F-araAMP 90 mg/kg, no PNP expression in the animal)	abscopal effect on a non-PNP tumor of a contralateral PNP tumor regressing due to F-araAMP ([2]; FIG. 7)	abscopal effect on a non-PNP tumor of a contralateral PNP tumor regressing due to F-araAMP ([2]; FIG. 7, listed as F-araAMP)	effect of expressing E. coli PNP in a solid breast tumor on activity of checkpoint blockade inhibitors ([1]; summary of experiments)	tumor growth, group 6 (non-PNP right flank tumor, PNP tumor contralaterally) versus group 10 (right) or group 10 (left) ([2]; FIG. 7, day 15, both groups F-araAMP 90 mg/kg + anti-CTLA4-9H10)
Nc1nc(F)nc2c1ncn2[C@@H]1O[C@H](COP(=O)(O)O)[C@@H](O)[C@@H]1O [fludarabine phosphate, 2-fluoro-9-(5-O-phosphono-β-D-arabinofuranosyl)-9H-purin-6-amine]	effective	effective	improve	not significantly different	significantly different	augments	augments; also recorded: enhances	strong abscopal effect; also recorded: inhibits	abscopal effect	–	–
B1	–	–	–	–	–	–	–	–	–	augments	significantly different
